For experiment [1], the system named is cut stems of chrysanthemums. Briefly: Roots-inducing and fixation-stimulating actions in cut stems of chrysanthemums (leaf spray). Conditions: 50th day. Set-up: Index for roots-induction, Total indexes: scale not given here. The class given is in vivo. An excerpt:
Stems of chrysanthemums were cut out by 5 cm from the part at 5-10 cm from the top to prepare cuttings with 2 leaves. The water solution of the tested compound (5 ppm) was sprayed once in a misty manner through an mascot spray onto the surface of leaves so that the surface got wet uniformly for each 8 cuttings. The cuttings in the pots were grew in a cabinet where the temperature was controlled in the range of 15 (C at lowest at night to 30 (C at highest in the daytime. Water was supplied appropriately according to the extent of dryness of soil during the cultivation of plants.
On the 50th day after the tested compound was sprayed, roots-induction of each cutting was checked by diggings up, and its extent was shown as an index for each rank.

The test system of experiment [2] is cuttings of violets without roots. Briefly: Roots-inducing and fixation-stimulating actions in cuttings of violets (leaf spray). It counts as in vivo. The protocol:
Seedlings of violets were used in the experiment. The lower part of the seedlings of violets was cut and cuttings of violets without roots were prepared. Each cutting of violets was planted into cultivation soil in a plug tray and supplied water sufficiently.
The plug trays were lined up on the working stand in a green house where the temperature was controlled at 25-33 (C. The water solution of 4-chloroindole-3-acetic acid (20 ppm) was sprayed in a misty manner through an atomizer onto the surface of leaves so that the surface got wet uniformly (once).
Then, the plants were grew for 38 days with 1-2 times water supply every other day, and numbers of the cuttings with and without roots-induction and of the dead cuttings. In the control, the cuttings were sprayed only water instead of 4-chloroindole-3-acetic acid solution and grew under the same conditions as those described above.

[3] abbreviates: 5 ppm water solution sprayed once onto leaves, 8 cuttings.
Setting [4] is: 20 ppm water solution sprayed once onto leaves, after 38 days, of 93 cuttings.

Experimental findings from patent publication US20030083202A1, “Roots-inducing agent of plants and its treatment method” (priority 2001, published 2003) are described below.

The structures appear in SMILES notation.

Take `O=C(O)Cc1c[nH]c2cccc(Cl)c12` [4-Cl-IAA, 4-chloroindole-3-acetic acid]: in experiment [1] (setting [3]), the “Index for roots-induction, cutting 1” value is recorded as 3 (The cuttings with 20 or more roots per a cutting); the “Index for roots-induction, cutting 2” value is 2 (The cuttings with 10-19 roots per a cutting); the “Index for roots-induction, cutting 3” value is 2 (The cuttings with 10-19 roots per a cutting); the “Index for roots-induction, cutting 4” value is 2 (The cuttings with 10-19 roots per a cutting). Further, in experiment [1] (setting [3]), the “Index for roots-induction, cutting 5” value is recorded as 2 (The cuttings with 10-19 roots per a cutting); the “Index for roots-induction, cutting 6” value is reported as 2 (The cuttings with 10-19 roots per a cutting); the “Index for roots-induction, cutting 7” value is recorded as 0 (The cuttings with less than 4 roots (including no roots)); the “Index for roots-induction, cutting 8” value is 0 (The cuttings with less than 4 roots (including no roots)). Besides, the “Index for roots-induction, Total indexes” value in experiment [1] (sum of the indexes of 8 cuttings, 5 ppm spray, non-treatment 7) stood at 13. For the same compound, the “Roots-inducing and fixation-stimulating actions (in words)” value in experiment [2] (20 ppm spray, versus water control) is reported as “extremely prominent”. For the same compound, the “Time at which roots-induction was observed” value in experiment [2] (20 ppm spray, roots checked by digging up at random, no statistical analysis, control only after 7 days) is recorded as “around 3 days”. In experiment [2] (setting [4]), the “Cuttings with roots-induction (number of cuttings)” value is 74, the “Cuttings without roots-induction (%)” value is on record as “(6) %”, the “Cuttings without roots-induction (number of cuttings)” value is given as 6 and the “Dead cuttings (%)” value was “(14) %”. Also, the “Dead cuttings (number of cuttings)” value in experiment [2] (setting [4]) came out at 13. The “Cuttings with roots-induction (%)” value in experiment [2] (20 ppm water solution sprayed once onto leaves, after 38 days, of 93 cuttings, listed as 4-Cl-iAA) is “(80) %”. For the same compound, the “Cuttings with roots-induction (%)” value in experiment [2] (20 ppm water solution sprayed once onto leaves, after 38 days, of 93 cuttings, listed as 4-chloroindole-3-acetic acid) is reported as 80%.
